Measurements from PMC6522510 (Nature Communications, 2019).
Where a name gives a salt, the structure may show the parent alone. Read-outs that look alike come from different tables or passages of the source.

Experiments:
Design in all cases: species or system AML cell lines (8); Primary HTS, single concentration about 10 uM, Cell Titer Glo viability; log10 luminescence, per cent inhibition relative to cycloheximide control
Details in all cases: 72 h, relative to cycloheximide control, log10 luminescence, inhibitor
U937 = system: U937
ML-2 = system: ML-2
MV4-11 = system: MV4-11
CMK = system: CMK
CHRF288-11 = system: CHRF288-11
MOLM-13 = system: MOLM-13
M07e = system: M07e
CMS = system: CMS

SMILES	U937 %inh (U937; U937 %inh, 10 µM) [%]	ML-2 %inh (ML-2; ML-2 %inh, 10 µM) [%]	MV4-11 %inh (MV4-11; MV4-11 %inh, 10 µM) [%]	CMK %inh (CMK; CMK %inh, 10 µM) [%]	CHRF288-11 %inh (CHRF288-11; CHRF288-11 %inh, 10 µM) [%]	MOLM-13 %inh (MOLM-13; MOLM-13 %inh, 10 µM) [%]	M07e %inh (M07e; M07e %inh, 10 µM) [%]	CMS %inh (CMS; CMS %inh, 10 µM) [%]	U937 %inh (U937) [%]	ML-2 %inh (ML-2) [%]	MV4-11 %inh (MV4-11) [%]	CMK %inh (CMK) [%]	CHRF288-11 %inh (CHRF288-11) [%]	MOLM-13 %inh (MOLM-13) [%]	M07e %inh (M07e) [%]	CMS %inh (CMS) [%]
CC(C)C(=O)OCC(=O)[C@@]12O[C@H](C3CCCCC3)O[C@@H]1C[C@H]1[C@@H]3CCC4=CC(=O)C=C[C@]4(C)[C@H]3[C@@H](O)C[C@@]12C [SJ000565158-2, CICLESONIDE]	6.134	-2.112	-3.886	0.8609	3.888	-0.3458	1.744	2.27	–	–	–	–	–	–	–	–
CC(C)Nc1cccnc1N1CCN(C(=O)c2cc3cc(NS(C)(=O)=O)ccc3[nH]2)CC1 [SJ000565159-1, DELAVIRDINE MESYLATE]	–	–	–	–	–	–	–	–	0.4896	-1.959	1.25	-2.785	-4.194	5.504	-1.136	-2.71
O=C(O[C@@H]1C[C@@H]2C[C@H]3C[C@H](C1)N2CC3=O)c1c[nH]c2ccccc12 [SJ000565162-1, DOLASETRON MESYLATE]	–	–	–	–	–	–	–	–	-1.048	0.9019	-0.3278	0.6983	-2.852	27.78	0.4101	-2.789
Cc1ccccc1N1CCN(CCc2nnc3n2CCCC3)CC1 [SJ000565164-1, DAPIPRAZOLE HYDROCHLORIDE]	-2.961	2.518	-2.751	-9.616	8.203	25.76	-1.247	-1.478	–	–	–	–	–	–	–	–
Cc1ccccc1N1CCN(CCc2nnc3n2CCCC3)CC1 [SJ000565164-2, DAPIPRAZOLE HYDROCHLORIDE]	-1.057	1.742	0.3008	-2.237	1.908	3.696	0.4169	-0.5071	–	–	–	–	–	–	–	–
CCCCC[C@](C)(O)/C=C/[C@@H]1[C@@H](C/C=C\CCCC(=O)O)[C@@H](O)C[C@H]1O [SJ000565165-1, CARBOPROST TROMETHAMINE]	–	–	–	–	–	–	–	–	-1.422	2.687	1.156	-7.865	21.89	2.726	-0.103	2.5
CCN(CC)CCOC(=O)c1ccc(N)cc1Cl [SJ000565166-1, CHLOROPROCAINE HYDROCHLORIDE]	–	–	–	–	–	–	–	–	-1.434	1.664	1.062	-4.183	2.414	5.209	-0.3142	-2.449
CCCCCCCCCCCCCCCCCCCCCCO [SJ000565168-1, 1-DOCOSANOL (BEHENYL ALCOHOL)]	–	–	–	–	–	–	–	–	-0.3827	-0.3569	-0.7251	-5.554	5.263	-4.024	3.056	-0.803
CO/N=C(\C(=O)N[C@@H]1C(=O)N2C(C(=O)O)=CCS[C@H]12)c1csc(N)n1 [SJ000565169-1, CEFTIZOXIME SODIUM]	–	–	–	–	–	–	–	–	-0.2552	-0.7534	-0.08777	-4.179	-3.529	-3.581	1.196	-3.365
CC1(C)O[C@@H]2C[C@H]3[C@@H]4CCC5=CC(=O)C=C[C@]5(C)[C@H]4[C@@H](O)C[C@]3(C)[C@]2(C(=O)CO)O1 [SJ000565170-1, DESONIDE]	–	–	–	–	–	–	–	–	6.18	-0.7887	0.7481	3.484	6.238	5.492	8.441	1.425
CC=CC1=C(C(=O)O)N2C(=O)[C@@H](NC(=O)[C@H](N)c3ccc(O)cc3)[C@H]2SC1 [SJ000565172-1, CEFPROZIL]	0.9255	-0.9482	3.254	-2.483	-2.763	3.181	-0.1553	-1.599	–	–	–	–	–	–	–	–
CC=CC1=C(C(=O)O)N2C(=O)[C@@H](NC(=O)[C@H](N)c3ccc(O)cc3)[C@H]2SC1 [SJ000565172-2, CEFPROZIL]	-2.74	-1.058	1.013	1.641	-7.818	0.07702	-4.985	-3.774	–	–	–	–	–	–	–	–
CC=CC1=C(C(=O)O)N2C(=O)[C@@H](NC(=O)[C@H](N)c3ccc(O)cc3)[C@H]2SC1 [SJ000565172-3, CEFPROZIL]	-1.915	-1.603	-2.606	-7.257	-2.278	-1.663	-2.148	0.3567	–	–	–	–	–	–	–	–
C#C[C@]1(O)CC[C@H]2[C@@H]3CCC4=CCCC[C@@H]4[C@H]3C(=C)C[C@@]21CC [SJ000565174-1, DESOGESTREL]	–	–	–	–	–	–	–	–	2.771	3.09	4.001	2.427	1.152	0.3348	3.523	2.249
COc1ccc2cc1Oc1cc3c(cc1OC)CC[N+](C)(C)[C@H]3Cc1ccc(cc1)Oc1c(OC)c(OC)cc3c1[C@@H](C2)[N+](C)(C)CC3 [SJ000565179-1, METOCURINE IODIDE]	–	–	–	–	–	–	–	–	-0.03863	-0.842	1.51	-2.411	0.972	0.1471	-0.367	-2.545
CCOC(=O)C(C)Oc1cccc2c(=O)n(CC(=O)Nc3ccc4c(c3)OCCO4)ccc12 (stereo not shown) [SJ000565608-2, SID 7969543]	–	–	–	–	–	–	–	–	-0.5022	3.909	2.255	1.565	4.074	1.293	-1.631	-1.631
COc1ccc(-c2ccc3c(N4CCOC[C@@H]4C)nc(N4CCOC[C@@H]4C)nc3n2)cc1CO [SJ000571306-4, 1009298-09-2 | AZD8055 | | AZD8055]	–	–	–	–	–	–	–	–	53.04	20	44.46	103.1	63.41	34.83	41.99	58.27
Cc1ccccc1-n1c(Cn2cnc3c(N)ncnc32)nc2cccc(C)c2c1=O [SJ000571308-2, IC-87114 | PIK 293]	–	–	–	–	–	–	–	–	0.4255	1.318	3.81	-7.948	10.49	2.064	-1.447	-0.8579
Fc1cccc(COc2ccc(Nc3ncnc4sc(-c5ccco5)cc34)cc2Cl)c1 [SJ000573002-1, U22476/39/2]	–	–	–	–	–	–	–	–	0.5844	0.9644	-1.439	-2.703	-4.95	-2.902	-3.433	0.3499
COc1cc2ncn(-c3cc(O[C@@H](C)c4ccccc4Cl)c(C(N)=O)s3)c2cc1OC [SJ000573003-1, U20723/53/1 | U20723/56/1]	–	–	–	–	–	–	–	–	74.14	43.99	67.89	79.08	52.73	83.64	89.94	40.55
